Source: the supplement of paper PMC11451515

Experiments:
Conditions in all cases: 48 h
SEM cells [1] = test: cell viability relative to DMSO control; higher = less cytotoxic
How it was run: (§1)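 NOMO1, SEM and P12-Ichikawa leukemia cells spent at least four passages adapting to each medium before use. They were seeded at 500 cells/well (NOMO1, SEM) or 1000 cells/well (P12-Ichikawa) in 5 μl in 1536-well plates and pin-dosed with library compounds in DMSO at 11 threefold steps from 47 μM down to 0.79 nM. After 48 h at 37°C, CellTiter-Glo One luminescence was read. Viability is reported as a percentage of the DMSO wells on each plate, with cell-free wells as background.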

P12-Ichikawa [2] = test: as above
How it was run: as §1

NOMO1 [3] = test: as above
How it was run: as §1

SEM cells [4] = test: AUC of viability dose-response curve (% viability x log10 dose units); higher = less sensitive
How it was run: (§2)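 Viability of medium-adapted leukemia cells was measured by CellTiter-Glo One luminescence after 48 h at 37°C with library compounds in DMSO. Doses were 11 threefold steps from 47 μM to 0.79 nM, in 1536-well plates at 500 or 1000 cells/well. Signals were normalised per plate to DMSO and cell-free wells and fitted with a four-parameter log-logistic model on log10 dose. Area under the curve was integrated by trapezoidal rule, with curves exceeding full viability scaled and failed quality-control curves removed.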

P12-Ichikawa [5] = test: as above
How it was run: as §2

NOMO1 [6] = test: as above
How it was run: as §2

N=C(N)c1ccc(OCCCCCOc2ccc(C(=N)N)cc2)cc1
cell viability [%]
Conditions	NOMO1 [3]	P12-Ichikawa [2]	SEM cells [1]
HPLM + 10% dialyzed FBS, 0.000781 µM	111	101	72.7
HPLM + 10% dialyzed FBS, 0.00234 µM	105	108	115
HPLM + 10% dialyzed FBS, 0.00702 µM	113	108	112
HPLM + 10% dialyzed FBS, 0.0211 µM	121	110	125
HPLM + 10% dialyzed FBS, 0.0632 µM	130	111	123
HPLM + 10% dialyzed FBS, 0.19 µM	133	102	127
HPLM + 10% dialyzed FBS, 0.569 µM	104	101	118
HPLM + 10% dialyzed FBS, 1.71 µM	104	103	122
HPLM + 10% dialyzed FBS, 5.12 µM	110	106	106
HPLM + 10% dialyzed FBS, 15.4 µM	75.8	97.1	101
HPLM + 10% dialyzed FBS, 46.1 µM	46.6	79.5	46.4
RPMI 5 mM glucose + 10% FBS, 0.000781 µM	100	104	–
RPMI 5 mM glucose + 10% FBS, 0.00234 µM	114	109	–
RPMI 5 mM glucose + 10% FBS, 0.00702 µM	113	109	–
RPMI 5 mM glucose + 10% FBS, 0.0211 µM	108	114	–
RPMI 5 mM glucose + 10% FBS, 0.0632 µM	113	116	–
RPMI 5 mM glucose + 10% FBS, 0.19 µM	92.2	111	–
RPMI 5 mM glucose + 10% FBS, 0.569 µM	116	107	–
RPMI 5 mM glucose + 10% FBS, 1.71 µM	107	104	–
RPMI 5 mM glucose + 10% FBS, 5.12 µM	93.6	117	–
RPMI 5 mM glucose + 10% FBS, 15.4 µM	84.8	85.3	–
RPMI 5 mM glucose + 10% FBS, 46.1 µM	47.7	62.8	–
RPMI 5 mM glucose + 10% dialyzed FBS, 0.000781 µM	91.6	101	64.9
RPMI 5 mM glucose + 10% dialyzed FBS, 0.00234 µM	101	115	111
RPMI 5 mM glucose + 10% dialyzed FBS, 0.00702 µM	121	123	146
RPMI 5 mM glucose + 10% dialyzed FBS, 0.0211 µM	115	125	138
RPMI 5 mM glucose + 10% dialyzed FBS, 0.0632 µM	114	118	121
RPMI 5 mM glucose + 10% dialyzed FBS, 0.19 µM	107	114	118
RPMI 5 mM glucose + 10% dialyzed FBS, 0.569 µM	108	118	105
RPMI 5 mM glucose + 10% dialyzed FBS, 1.71 µM	98.6	108	103
RPMI 5 mM glucose + 10% dialyzed FBS, 5.12 µM	98.3	107	113
RPMI 5 mM glucose + 10% dialyzed FBS, 15.4 µM	70.6	102	120
RPMI 5 mM glucose + 10% dialyzed FBS, 46.1 µM	49.2	81.5	57.8

AUC of viability dose-response curve
Conditions	NOMO1 [6]	P12-Ichikawa [5]	SEM cells [4]
HPLM + 10% dialyzed FBS	441	467	457
RPMI 5 mM glucose + 10% FBS	447	456	463
RPMI 5 mM glucose + 10% dialyzed FBS	441	458	465

Cc1ccc(F)c(NC(=O)Nc2ccc(-c3cccc4[nH]nc(N)c34)cc2)c1
cell viability [%]
Conditions	NOMO1 [3]	P12-Ichikawa [2]	SEM cells [1]
HPLM + 10% dialyzed FBS, 0.000781 µM	91.4	102	91.7
HPLM + 10% dialyzed FBS, 0.00234 µM	111	113	92.7
HPLM + 10% dialyzed FBS, 0.00702 µM	118	107	86.3
HPLM + 10% dialyzed FBS, 0.0211 µM	125	112	76.2
HPLM + 10% dialyzed FBS, 0.0632 µM	115	112	59.5
HPLM + 10% dialyzed FBS, 0.19 µM	111	115	56.7
HPLM + 10% dialyzed FBS, 0.569 µM	110	115	55.1
HPLM + 10% dialyzed FBS, 1.71 µM	110	120	62.9
HPLM + 10% dialyzed FBS, 5.12 µM	117	116	64.9
HPLM + 10% dialyzed FBS, 15.4 µM	93.8	111	64.2
HPLM + 10% dialyzed FBS, 46.1 µM	86.6	81.5	14.4
RPMI 5 mM glucose + 10% FBS, 0.000781 µM	99.6	112	73.4
RPMI 5 mM glucose + 10% FBS, 0.00234 µM	125	113	84.4
RPMI 5 mM glucose + 10% FBS, 0.00702 µM	121	113	80.3
RPMI 5 mM glucose + 10% FBS, 0.0211 µM	108	112	69.9
RPMI 5 mM glucose + 10% FBS, 0.0632 µM	123	118	49.7
RPMI 5 mM glucose + 10% FBS, 0.19 µM	118	126	48.4
RPMI 5 mM glucose + 10% FBS, 0.569 µM	113	108	41.7
RPMI 5 mM glucose + 10% FBS, 1.71 µM	115	126	56
RPMI 5 mM glucose + 10% FBS, 5.12 µM	118	120	48.8
RPMI 5 mM glucose + 10% FBS, 15.4 µM	114	132	29.9
RPMI 5 mM glucose + 10% FBS, 46.1 µM	105	95.3	1.63
RPMI 5 mM glucose + 10% dialyzed FBS, 0.000781 µM	106	105	87.5
RPMI 5 mM glucose + 10% dialyzed FBS, 0.00234 µM	112	122	91.3
RPMI 5 mM glucose + 10% dialyzed FBS, 0.00702 µM	108	123	82.1
RPMI 5 mM glucose + 10% dialyzed FBS, 0.0211 µM	123	122	71.1
RPMI 5 mM glucose + 10% dialyzed FBS, 0.0632 µM	116	127	65.8
RPMI 5 mM glucose + 10% dialyzed FBS, 0.19 µM	105	127	48.7
RPMI 5 mM glucose + 10% dialyzed FBS, 0.569 µM	120	97.2	60.6
RPMI 5 mM glucose + 10% dialyzed FBS, 1.71 µM	117	132	61.7
RPMI 5 mM glucose + 10% dialyzed FBS, 5.12 µM	104	131	57.6
RPMI 5 mM glucose + 10% dialyzed FBS, 15.4 µM	111	116	43.5
RPMI 5 mM glucose + 10% dialyzed FBS, 46.1 µM	87.8	92.6	8.13

AUC of viability dose-response curve
Conditions	NOMO1 [6]	P12-Ichikawa [5]	SEM cells [4]
HPLM + 10% dialyzed FBS	464	470	314
RPMI 5 mM glucose + 10% FBS	472	472	256
RPMI 5 mM glucose + 10% dialyzed FBS	471	470	296

CCCn1c(=O)c2[nH]c(C34CC5CC3C[C@@H](C5)C4)nc2n(CCC)c1=O
cell viability [%]
Conditions	NOMO1 [3]	P12-Ichikawa [2]	SEM cells [1]
HPLM + 10% dialyzed FBS, 0.000781 µM	105	111	102
HPLM + 10% dialyzed FBS, 0.00234 µM	62.9	107	84.8
HPLM + 10% dialyzed FBS, 0.00702 µM	92.9	100	103
HPLM + 10% dialyzed FBS, 0.0211 µM	112	97.8	109
HPLM + 10% dialyzed FBS, 0.0632 µM	96.2	112	110
HPLM + 10% dialyzed FBS, 0.19 µM	125	110	122
HPLM + 10% dialyzed FBS, 0.569 µM	104	107	115
HPLM + 10% dialyzed FBS, 1.71 µM	105	99.5	103
HPLM + 10% dialyzed FBS, 5.12 µM	107	93.6	97.9
HPLM + 10% dialyzed FBS, 15.4 µM	99.5	96.6	95.5
HPLM + 10% dialyzed FBS, 46.1 µM	114	96.1	97.8
RPMI 5 mM glucose + 10% FBS, 0.000781 µM	90.5	102	50.7
RPMI 5 mM glucose + 10% FBS, 0.00234 µM	92.6	113	44.7
RPMI 5 mM glucose + 10% FBS, 0.00702 µM	102	112	84.2
RPMI 5 mM glucose + 10% FBS, 0.0211 µM	96.5	110	94.6
RPMI 5 mM glucose + 10% FBS, 0.0632 µM	87.4	136	107
RPMI 5 mM glucose + 10% FBS, 0.19 µM	91.5	106	101
RPMI 5 mM glucose + 10% FBS, 0.569 µM	86.5	64.5	94.1
RPMI 5 mM glucose + 10% FBS, 1.71 µM	97.2	80.3	97.2
RPMI 5 mM glucose + 10% FBS, 5.12 µM	90.3	85.5	94.8
RPMI 5 mM glucose + 10% FBS, 15.4 µM	89.9	86.1	91.1
RPMI 5 mM glucose + 10% FBS, 46.1 µM	95.5	90	84.4
RPMI 5 mM glucose + 10% dialyzed FBS, 0.000781 µM	99	94.2	91.6
RPMI 5 mM glucose + 10% dialyzed FBS, 0.00234 µM	89.2	101	73.2
RPMI 5 mM glucose + 10% dialyzed FBS, 0.00702 µM	92.9	92.4	116
RPMI 5 mM glucose + 10% dialyzed FBS, 0.0211 µM	95.5	96.9	130
RPMI 5 mM glucose + 10% dialyzed FBS, 0.0632 µM	107	99.9	117
RPMI 5 mM glucose + 10% dialyzed FBS, 0.19 µM	98.2	100	110
RPMI 5 mM glucose + 10% dialyzed FBS, 0.569 µM	94.3	94.2	118
RPMI 5 mM glucose + 10% dialyzed FBS, 1.71 µM	95.6	98.7	109
RPMI 5 mM glucose + 10% dialyzed FBS, 5.12 µM	101	98	101
RPMI 5 mM glucose + 10% dialyzed FBS, 15.4 µM	94.8	93.2	91.5
RPMI 5 mM glucose + 10% dialyzed FBS, 46.1 µM	100	88.6	111

AUC of viability dose-response curve
Conditions	NOMO1 [6]	P12-Ichikawa [5]	SEM cells [4]
HPLM + 10% dialyzed FBS	454	462	477
RPMI 5 mM glucose + 10% FBS	442	410	416
RPMI 5 mM glucose + 10% dialyzed FBS	463	460	457
